From ChEMBL document CHEMBL1201862, “PubChem BioAssay data set” (2004)
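Interpolation was linear, between the two tested concentrations surrounding the appropriate level; five concentrations were tested over 48 hours in 96-well plates. GI50 = concentration required for 50% inhibition of growth.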 The source made the active and inactive calls. Cut-off read from the data, not from the text of the source: active = GI50 up to about 1.1 µM and inactive = higher.

How the values were obtained:
Experiment in all cases: NCI-60 cell line screen, 48 h
CCRF-CEM = test system: CCRF-CEM
IGROV-1 = test system: IGROV-1
RPMI-8226 = test system: RPMI-8226
OVCAR-5 = test system: OVCAR-5
SK-OV-3 = test system: SK-OV-3
SF-295 = test system: SF-295
786-0 = test system: 786-0
SR = test system: SR
A549 = test system: A549
SK-MEL-2 = test system: SK-MEL-2
TK-10 = test system: TK-10
NCI-H460 = test system: NCI-H460
SNB-19 = test system: SNB-19
OVCAR-8 = test system: OVCAR-8
MDA-MB-231 = test system: MDA-MB-231
LOX IMVI = test system: LOX IMVI
UACC-257 = test system: UACC-257
DU-145 = test system: DU-145
NCI/ADR-RES = test system: NCI/ADR-RES
HL-60 = test system: HL-60
SF-539 = test system: SF-539
M14 = test system: M14
OVCAR-4 = test system: OVCAR-4
SNB-75 = test system: SNB-75
UACC-62 = test system: UACC-62
SF-268 = test system: SF-268
SK-MEL-5 = test system: SK-MEL-5
HOP-92 = test system: HOP-92
Hs-578T = test system: Hs-578T
HCC 2998 = test system: HCC 2998
A498 = test system: A498
MCF7 = test system: MCF7
SW-620 = test system: SW-620
KM12 = test system: KM12
EKVX = test system: EKVX
NCI-H226 = test system: NCI-H226
HOP-62 = test system: HOP-62
Malme-3M = test system: Malme-3M
MDA-MB-435 = test system: MDA-MB-435
UO-31 = test system: UO-31
CAKI-1 = test system: CAKI-1
T47D = test system: T47D
COLO 205 = test system: COLO 205
NCI-H522 = test system: NCI-H522
SK-MEL-28 = test system: SK-MEL-28
OVCAR-3 = test system: OVCAR-3
K562 = test system: K562
HT-29 = test system: HT-29
HCT-15 = test system: HCT-15
PC-3 = test system: PC-3
MDA-N = test system: MDA-N
NCI-H23 = test system: NCI-H23
ACHN = test system: ACHN
SN12C = test system: SN12C
BT-549 = test system: BT-549
HCT-116 = test system: HCT-116
MOLT-4 = test system: MOLT-4

Measured: GI50

N#Cc1c(-c2ccc(Cl)cc2)cc(-c2nc3ccccc3[nH]2)nc1N
10.9 µM: HCT-15
inactive: CCRF-CEM 5.57 µM | IGROV-1 2.39 µM | RPMI-8226 4.22 µM | OVCAR-5 19.5 µM | SK-OV-3 19.5 µM | SF-295 10.7 µM | 786-0 11.3 µM | SR 4.56 µM | A549 5.92 µM | SK-MEL-2 12.6 µM | TK-10 10.1 µM | NCI-H460 7.19 µM | SNB-19 12.1 µM | OVCAR-8 13 µM | MDA-MB-231 12.2 µM | LOX IMVI 10.2 µM | UACC-257 5.14 µM | DU-145 6.98 µM | NCI/ADR-RES 15 µM | HL-60 11.2 µM | SF-539 15.3 µM | M14 4.32 µM | OVCAR-4 18.6 µM | SNB-75 10.8 µM | UACC-62 7.66 µM | SF-268 7.98 µM | SK-MEL-5 6.67 µM | HOP-92 11 µM | Hs-578T 16.5 µM | HCC 2998 4.02 µM | A498 8.85 µM | MCF7 3.49 µM | SW-620 15 µM | KM12 10 µM | EKVX 11 µM | NCI-H226 10.8 µM | HOP-62 14.4 µM | Malme-3M 16.6 µM | MDA-MB-435 5.43 µM | UO-31 9.1 µM | CAKI-1 17.9 µM | T47D 3.12 µM | COLO 205 4.3 µM | NCI-H522 13.7 µM | SK-MEL-28 12.2 µM | OVCAR-3 12.5 µM | K562 6.71 µM | HT-29 9.16 µM | PC-3 11 µM | MDA-N 6.49 µM | NCI-H23 14.2 µM | ACHN 11.1 µM | SN12C 13.4 µM | BT-549 14.4 µM | HCT-116 10.3 µM | MOLT-4 2.92 µM
